Results as given in patent US20250381242A1 (INVAIO SCIENCES, INC., priority 2024, published 2025).
No end group written: not given here.

Legend:
A. tumefaciens = details: 24 h, 10 μM
X. citri = assay: Bacterial growth inhibition by OD600 absorbance, X. citri; type: cell-based, X. citri subsp. citri (ATCC 49118); details: peptide 10 μM, 24 hours at 30° C., OD 600 nm
L. crescens = details: 10 μM
E. coli = assay: Bacterial growth inhibition by OD600 absorbance, E. coli; type: cell-based, E. coli (DH5-alpha); details: peptide 10 μM, 24 hours at 37° C., OD 600 nm
How it was run: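 Percent inhibition was calculated from initial and 24 h OD600 readings against DMSO (0.1%) and antibiotic controls. Cultures received 10 μM peptide and were incubated at 30° C. (X. citri) or 37° C. (E. coli).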

E. amylovora = details: 24 h, 10 μM

IKKILSKIKKLLK [compound 122]
growth inhibition, A. tumefaciens (A. tumefaciens): 97.95% | growth inhibition, X. citri (X. citri): 100.00% | growth inhibition, L. crescens (L. crescens): <90% | growth inhibition, E. coli (E. coli): <90% | growth inhibition, E. amylovora (E. amylovora): 93.74%
